# Source: US9409905B2, “Antibacterial compounds and methods for use” (PTC THERAPEUTICS, INC., priority 2011, dated 2016)
# Legend:
# [1] = tested on: Escherichia coli (E. coli) BAS849; experiment: Antibacterial activity, microbroth dilution MIC (Table 1); assay type: cell-based; conditions: microbroth dilution, super sensitive Gram-negative E. coli BAS849, read-out: MIC, BAS849
# Outline: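 Broth microdilution; endpoint = no macroscopic growth; value = lowest inhibiting concn, μg/mL.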
# [2] = tested on: Staphylococcus aureus (S. aureus) 29213; experiment: as above; assay type: cell-based; conditions: microbroth dilution, Gram-positive S. aureus 29213, read-out: MIC, 29213
# Outline: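 Read-out: visual absence of growth. The lowest concentration meeting this gives the MIC, expressed in μg/mL, with microbroth dilution as the method.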
# [3] = tested on: E. coli 25922; experiment: as above; assay type: cell-based, Escherichia coli; conditions: Escherichia coli; microbroth dilution; control Gram-negative E. coli 25922 strain; read-out: MIC, 25922
# Outline: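 Potency is reported as minimum inhibitory concentration in μg/mL, determined by broth microdilution as the lowest level of compound that stops growth visible to the eye.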
# [4] = tested on: E. coli LZ3111; experiment: Antibacterial activity, MIC, quinolone resistant strain (Table 2); assay type: cell-based; conditions: Escherichia coli, LZ3111, read-out: MIC LZ3111
# Outline: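 Lowest concentration giving no macroscopically visible growth was taken as the MIC (μg/mL) after microbroth dilution testing.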
# [5] = tested on: Acinetobacter baumannii (A. baumannii) BAA747; experiment: Antibacterial activity, MIC (Table 4); assay type: cell-based; conditions: A. baumannii BAA747, read-out: MIC, BAA747
# Outline: (§1)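 MIC (μg/mL) by microbroth dilution, taken as the lowest drug concentration preventing macroscopically visible growth. MXX strains are multi-drug resistant clinical isolates.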
# [6] = tested on: Klebsiella pneumoniae (K. pneumoniae) 35657; experiment: Antibacterial activity, MIC (Table 4); assay type: cell-based; conditions: K. pneumoniae 35657, read-out: MIC, 35657
# Outline: as §1
# [7] = tested on: A. baumannii MXX2240; experiment: Antibacterial activity, MIC, resistant strain (Table 4); assay type: cell-based; conditions: Acinetobacter baumannii, MXX2240; resistant A. baumannii MMX2240, multi-drug resistant clinical isolate; read-out: MIC, MMX2240
# Outline: as §1
# [8] = tested on: K. pneumoniae MXX1232; experiment: as above; assay type: cell-based; conditions: Klebsiella pneumoniae, MXX1232; resistant K. pneumoniae MMX1232, multi-drug resistant clinical isolate; read-out: MIC, MMX1232
# Outline: as §1
# [9] = tested on: Pseudomonas aeruginosa (P. aeruginosa) 27853; experiment: Antibacterial activity, MIC (Table 5); assay type: cell-based; conditions: P. aeruginosa 27853, read-out: MIC, 27853
# Outline: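 MIC in μg/mL from broth microdilution; endpoint is the lowest drug level giving no visible growth.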
SMILES,MIC [1],MIC [2],MIC [3],MIC [4],MIC [5],MIC [6],MIC [7],MIC [8],MIC [9]
"Cc1c(-c2ccc3c(c2)cc2n3CC(N(C)C)C2)[nH]c(=O)c(C(=O)O)c1O.Cl (stereo not drawn) [Cpd 417, 6-(2-(dimethylamino)-2,3-dihydro-1H-pyrrolo[1,2-a]indol-7-yl)-4-hydroxy-5-methyl-2-oxo-1,2-dihydropyridine-3-carboxylic acid hydrochloride]",1 to 3.5 µg/mL,12.5 to 150 µg/mL,12.5 to 150 µg/mL,< 1 µg/mL,3.5 to 12.5 µg/mL,12.5 to 150 µg/mL,< 1 µg/mL,12.5 to 150 µg/mL,12.5 to 150 µg/mL
"CCc1c(-c2ccc3c(c2)cc2n3CC(N(C)C)C2)[nH]c(=O)c(C(=O)O)c1O.Cl (stereo not drawn) [Cpd 418, 6-(2-(dimethylamino)-2,3-dihydro-1H-pyrrolo[1,2-a]indol-7-yl)-5-ethyl-4-hydroxy-2-oxo-1,2-dihydropyridine-3-carboxylic acid hydrochloride]",3.5 to 12.5 µg/mL,12.5 to 150 µg/mL,3.5 to 12.5 µg/mL,< 1 µg/mL,3.5 to 12.5 µg/mL,3.5 to 12.5 µg/mL,3.5 to 12.5 µg/mL,12.5 to 150 µg/mL,12.5 to 150 µg/mL
"CCc1c(-c2ccc3c(c2)cc2n3CC(N(C)CC)C2)[nH]c(=O)c(C(=O)O)c1O (stereo not drawn) [Cpd 419, 5-ethyl-6-(2-(ethyl(methyl)amino)-2,3-dihydro-1H-pyrrolo[1,2-a]indol-7-yl)-4-hydroxy-2-oxo-1,2-dihydropyridine-3-carboxylic acid]",< 1 µg/mL,3.5 to 12.5 µg/mL,3.5 to 12.5 µg/mL,1 to 3.5 µg/mL,3.5 to 12.5 µg/mL,3.5 to 12.5 µg/mL,3.5 to 12.5 µg/mL,12.5 to 150 µg/mL,12.5 to 150 µg/mL
"CCCN(C)C1Cc2cc3cc(-c4[nH]c(=O)c(C(=O)O)c(O)c4CC)ccc3n2C1 (stereo not drawn) [Cpd 420, 5-ethyl-4-hydroxy-6-(2-(methyl(propyl)amino)-2,3-dihydro-1H-pyrrolo[1,2-a]indol-7-yl)-2-oxo-1,2-dihydropyridine-3-carboxylic acid]",< 1 µg/mL,3.5 to 12.5 µg/mL,3.5 to 12.5 µg/mL,3.5 to 12.5 µg/mL,12.5 to 150 µg/mL,12.5 to 150 µg/mL,3.5 to 12.5 µg/mL,12.5 to 150 µg/mL,12.5 to 150 µg/mL
"Cc1c(-c2ccc3cc[nH]c3c2)[nH]c(=O)c(C(=O)O)c1O [Cpd 424, 4-hydroxy-6-(1H-indol-6-yl)-5-methyl-2-oxo-1,2-dihydropyridine-3-carboxylic acid]",3.5 to 12.5 µg/mL,3.5 to 12.5 µg/mL,12.5 to 150 µg/mL,< 1 µg/mL,12.5 to 150 µg/mL,12.5 to 150 µg/mL,< 1 µg/mL,12.5 to 150 µg/mL,12.5 to 150 µg/mL
"CCc1c(-c2ccc3[nH]ccc3c2)[nH]c(=O)c(C(=O)O)c1O [Cpd 425, 5-ethyl-4-hydroxy-6-(1H-indol-5-yl)-2-oxo-1,2-dihydropyridine-3-carboxylic acid]",< 1 µg/mL,3.5 to 12.5 µg/mL,1 to 3.5 µg/mL,1 to 3.5 µg/mL,3.5 to 12.5 µg/mL,1 to 3.5 µg/mL,< 1 µg/mL,12.5 to 150 µg/mL,12.5 to 150 µg/mL
"Cc1c(-c2ccc3[nH]ccc3c2)[nH]c(=O)c(C(=O)O)c1O [Cpd 426, 4-hydroxy-6-(1H-indol-5-yl)-5-methyl-2-oxo-1,2-dihydropyridine-3-carboxylic acid]",3.5 to 12.5 µg/mL,12.5 to 150 µg/mL,12.5 to 150 µg/mL,< 1 µg/mL,12.5 to 150 µg/mL,12.5 to 150 µg/mL,< 1 µg/mL,12.5 to 150 µg/mL,12.5 to 150 µg/mL
"Cc1c(-c2ccc3c(c2)CC(=O)N3)[nH]c(=O)c(C(=O)O)c1O [Cpd 427, 4-hydroxy-5-methyl-2-oxo-6-(2-oxoindolin-5-yl)-1,2-dihydropyridine-3-carboxylic acid]",12.5 to 150 µg/mL,12.5 to 150 µg/mL,12.5 to 150 µg/mL,12.5 to 150 µg/mL,12.5 to 150 µg/mL,12.5 to 150 µg/mL,12.5 to 150 µg/mL,12.5 to 150 µg/mL,12.5 to 150 µg/mL
"CCc1c(-c2ccc3cc(N(C)C)ccc3c2)[nH]c(=O)c(C(=O)O)c1O [Cpd 428, 6-(6-(dimethylamino)naphthalen-2-yl)-5-ethyl-4-hydroxy-2-oxo-1,2-dihydropyridine-3-carboxylic acid]",< 1 µg/mL,< 1 µg/mL,12.5 to 150 µg/mL,12.5 to 150 µg/mL,12.5 to 150 µg/mL,12.5 to 150 µg/mL,12.5 to 150 µg/mL,12.5 to 150 µg/mL,12.5 to 150 µg/mL
"CCc1c(-c2ccc3cc(C)cn3c2)[nH]c(=O)c(C(=O)O)c1O [Cpd 429, 5-ethyl-4-hydroxy-6-(2-methylindolizin-6-yl)-2-oxo-1,2-dihydropyridine-3-carboxylic acid]",12.5 to 150 µg/mL,12.5 to 150 µg/mL,12.5 to 150 µg/mL,12.5 to 150 µg/mL,12.5 to 150 µg/mL,12.5 to 150 µg/mL,12.5 to 150 µg/mL,12.5 to 150 µg/mL,12.5 to 150 µg/mL
"CCc1c(-c2cnc3cc[nH]c3c2)[nH]c(=O)c(C(=O)O)c1O [Cpd 430, 5-ethyl-4-hydroxy-2-oxo-6-(1H-pyrrolo[3,2-b]pyridin-6-yl)-1,2-dihydropyridine-3-carboxylic acid]",12.5 to 150 µg/mL,12.5 to 150 µg/mL,12.5 to 150 µg/mL,12.5 to 150 µg/mL,12.5 to 150 µg/mL,12.5 to 150 µg/mL,12.5 to 150 µg/mL,12.5 to 150 µg/mL,12.5 to 150 µg/mL
"Cc1c(-c2cnc3cc[nH]c3c2)[nH]c(=O)c(C(=O)O)c1O [Cpd 431, 4-hydroxy-5-methyl-2-oxo-6-(1H-pyrrolo[3,2-b]pyridin-6-yl)-1,2-dihydropyridine-3-carboxylic acid]",12.5 to 150 µg/mL,12.5 to 150 µg/mL,12.5 to 150 µg/mL,12.5 to 150 µg/mL,12.5 to 150 µg/mL,12.5 to 150 µg/mL,12.5 to 150 µg/mL,12.5 to 150 µg/mL,12.5 to 150 µg/mL
"CCc1c(-c2ccc3c(c2)[nH]c2ccccc23)[nH]c(=O)c(C(=O)O)c1O [Cpd 432, 6-(9H-carbazol-2-yl)-5-ethyl-4-hydroxy-2-oxo-1,2-dihydropyridine-3-carboxylic acid]",< 1 µg/mL,< 1 µg/mL,3.5 to 12.5 µg/mL,12.5 to 150 µg/mL,1 to 3.5 µg/mL,3.5 to 12.5 µg/mL,12.5 to 150 µg/mL,12.5 to 150 µg/mL,12.5 to 150 µg/mL
"CCc1c(-c2ccc3cc[nH]c3n2)[nH]c(=O)c(C(=O)O)c1O [Cpd 433, 5-ethyl-4-hydroxy-2-oxo-6-(1H-pyrrolo[2,3-b]pyridin-6-yl)-1,2-dihydropyridine-3-carboxylic acid]",< 1 µg/mL,12.5 to 150 µg/mL,12.5 to 150 µg/mL,12.5 to 150 µg/mL,3.5 to 12.5 µg/mL,3.5 to 12.5 µg/mL,12.5 to 150 µg/mL,12.5 to 150 µg/mL,12.5 to 150 µg/mL
"Cc1c(-c2ccc3cc[nH]c3n2)[nH]c(=O)c(C(=O)O)c1O [Cpd 434, 4-hydroxy-5-methyl-2-oxo-6-(1H-pyrrolo[2,3-b]pyridin-6-yl)-1,2-dihydropyridine-3-carboxylic acid]",12.5 to 150 µg/mL,12.5 to 150 µg/mL,12.5 to 150 µg/mL,12.5 to 150 µg/mL,12.5 to 150 µg/mL,12.5 to 150 µg/mL,12.5 to 150 µg/mL,12.5 to 150 µg/mL,12.5 to 150 µg/mL
"CCc1c(-c2ccc3c(ccn3-c3ccccc3)c2)[nH]c(=O)c(C(=O)O)c1O [Cpd 435, 5-ethyl-4-hydroxy-2-oxo-6-(1-phenyl-1H-indol-5-yl)-1,2-dihydropyridine-3-carboxylic acid]",< 1 µg/mL,< 1 µg/mL,12.5 to 150 µg/mL,12.5 to 150 µg/mL,12.5 to 150 µg/mL,12.5 to 150 µg/mL,12.5 to 150 µg/mL,12.5 to 150 µg/mL,12.5 to 150 µg/mL
"CCc1c(-c2ccc3c(ccn3-c3ccccn3)c2)[nH]c(=O)c(C(=O)O)c1O [Cpd 436, 5-ethyl-4-hydroxy-2-oxo-6-(1-(pyridin-2-yl)-1H-indol-5-yl)-1,2-dihydropyridine-3-carboxylic acid]",< 1 µg/mL,1 to 3.5 µg/mL,12.5 to 150 µg/mL,12.5 to 150 µg/mL,12.5 to 150 µg/mL,12.5 to 150 µg/mL,12.5 to 150 µg/mL,12.5 to 150 µg/mL,12.5 to 150 µg/mL
"CCc1c(-c2ccc3c(ccn3-c3ccc(C(F)(F)F)cc3)c2)[nH]c(=O)c(C(=O)O)c1O [Cpd 437, 5-ethyl-4-hydroxy-2-oxo-6-(1-(4-(trifluoromethyl)phenyl)-1H-indol-5-yl)-1,2-dihydropyridine-3-carboxylic acid]",< 1 µg/mL,3.5 to 12.5 µg/mL,12.5 to 150 µg/mL,12.5 to 150 µg/mL,12.5 to 150 µg/mL,12.5 to 150 µg/mL,12.5 to 150 µg/mL,12.5 to 150 µg/mL,12.5 to 150 µg/mL
